Experimental data reported in PMC6979384, “Characterization of the plant homeodomain (PHD) reader family for their histone tail interactions” (Epigenetics & Chromatin, 2020).

How the values were obtained:
Experiment in all cases: Histone peptide microarray
Assay type in all cases: binding, human
Details in all cases: total n = 4
PHRF1 (RP) = tested on: PHRF1 (RP)
Procedure, shortened: (§1)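 Using an optimized microarray protocol, purified GST-tagged PHD fingers were incubated at 0.5 μM on 293 histone peptides with single or multiple modifications, and array signal was recorded as the average of 4 replicates.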

DPF2 (PPC2W2) = tested on: DPF2 (PPC2W2)
Procedure, shortened: as §1

BPTF (PB) = tested on: BPTF (PB)
Procedure, shortened: as §1

PHF23 = tested on: PHF23
Procedure, shortened: as §1

PHF2 = tested on: PHF2
Procedure, shortened: as §1

KDM4C (TTP) = tested on: KDM4C (TTP)
Procedure, shortened: as §1

ING2 = tested on: ING2
Procedure, shortened: as §1

CHD5 (PCC) = tested on: CHD5 (PCC)
Procedure, shortened: as §1

CHD4 (PPCC) = tested on: CHD4 (PPCC)
Procedure, shortened: as §1

ING5 = tested on: ING5
Procedure, shortened: as §1

SP140L = tested on: SP140L
Procedure, shortened: as §1

TRIM66 (PB) = tested on: TRIM66 (PB)
Procedure, shortened: as §1

CHD5 (PPCC) = tested on: CHD5 (PPCC)
Procedure, shortened: as §1

AIRE (PP) = tested on: AIRE (PP)
Procedure, shortened: as §1

KDM5A (1) = tested on: KDM5A (1)
Procedure, shortened: as §1

KDM7A = tested on: KDM7A
Procedure, shortened: as §1

BAZ2B = tested on: BAZ2B
Procedure, shortened: as §1

PHF8 = tested on: PHF8
Procedure, shortened: as §1

MLL5 = tested on: MLL5
Procedure, shortened: as §1

MORC3 (CW) = tested on: MORC3 (CW)
Procedure, shortened: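 Readout is array binding signal, reported as the mean and standard deviation over four replicates. Each purified GST-fused PHD domain was incubated at 0.5 μM with a library of 293 modified histone peptides.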

ING4 = tested on: ING4
Procedure, shortened: as §1

KDM5B (1) = tested on: KDM5B (1)
Procedure, shortened: as §1

KDM5B (3) = tested on: KDM5B (3)
Procedure, shortened: as §1

PHF13 = tested on: PHF13
Procedure, shortened: as §1

KDM5A (3) = tested on: KDM5A (3)
Procedure, shortened: as §1

TAF3 = tested on: TAF3
Procedure, shortened: as §1

ING3 = tested on: ING3
Procedure, shortened: as §1

ING1 = tested on: ING1
Procedure, shortened: as §1

DIDO1 = tested on: DIDO1
Procedure, shortened: as §1

PHF21A = tested on: PHF21A
Procedure, shortened: as §1

RAG2 = tested on: RAG2
Procedure, shortened: as §1

[1] = sheet "Array Heatmap", GST-tagged reader, histone peptide array

Substance: H3K18ac (1-32): H3 1-32
- Array Heatmap value (peptide array signal) (PHRF1 (RP); PHRF1 (RP), sheet "Array Heatmap", each array performed twice): 0.6228
- Array Heatmap value (peptide array signal) (DPF2 (PPC2W2); DPF2 (PPC2W2), sheet "Array Heatmap", each array performed twice): 0.7444
- Array Heatmap value (peptide array signal) (BPTF (PB); BPTF (PB), sheet "Array Heatmap", each array performed twice): 0.3434
- Array Heatmap value (peptide array signal) (PHF23; PHF23, sheet "Array Heatmap", each array performed twice): 0.5317
- Array Heatmap value (peptide array signal) (PHF2; PHF2, sheet "Array Heatmap", each array performed twice): 0.4084
- Array Heatmap value (peptide array signal) (KDM4C (TTP); KDM4C (TTP), sheet "Array Heatmap", each array performed twice): 0.505
- Array Heatmap value (peptide array signal) (ING2; ING2, sheet "Array Heatmap", each array performed twice): 0.6127
- Array Heatmap value (peptide array signal) (CHD5 (PCC); CHD5 (PCC), sheet "Array Heatmap", each array performed twice): 0.7075
- Array Heatmap value (peptide array signal) (CHD4 (PPCC); CHD4 (PPCC), sheet "Array Heatmap", each array performed twice): 0.5307
- Array Heatmap value (peptide array signal) (ING5; ING5, sheet "Array Heatmap", each array performed twice): 0.3576
- Array Heatmap value (peptide array signal) (SP140L; SP140L, sheet "Array Heatmap", each array performed twice): 0.3664
- Array Heatmap value (peptide array signal) (TRIM66 (PB); TRIM66 (PB), sheet "Array Heatmap", each array performed twice): 0.5982
- Array Heatmap value (peptide array signal) (CHD5 (PPCC); CHD5 (PPCC), sheet "Array Heatmap", each array performed twice): 0.5424
- Array Heatmap value (peptide array signal) (AIRE (PP); AIRE (PP), sheet "Array Heatmap", each array performed twice): 0.5458
- Array Heatmap value (peptide array signal) (KDM5A (1); KDM5A (1), sheet "Array Heatmap", each array performed twice): 0.4813
- Array Heatmap value (peptide array signal) (KDM7A; KDM7A, sheet "Array Heatmap", each array performed twice): 0.3927
- Array Heatmap value (peptide array signal) (BAZ2B; BAZ2B, sheet "Array Heatmap", each array performed twice): 0.4901
- Array Heatmap value (peptide array signal) (PHF8; PHF8, sheet "Array Heatmap", each array performed twice): 0.3597
- Array Heatmap value (peptide array signal) (MLL5; MLL5, sheet "Array Heatmap", each array performed twice): 0.5655
- Array Heatmap value (peptide array signal) (MORC3 (CW); MORC3 (CW), sheet "Array Heatmap", each array performed twice): 0.4635
- Array Heatmap value (peptide array signal) (ING4; ING4, sheet "Array Heatmap", each array performed twice): 0.4589
- Array Heatmap value (peptide array signal) (KDM5B (1); KDM5B (1), sheet "Array Heatmap", each array performed twice): 0.7307
- Array Heatmap value (peptide array signal) (KDM5B (3); KDM5B (3), sheet "Array Heatmap", each array performed twice): 0.448
- Array Heatmap value (peptide array signal) (PHF13; PHF13, sheet "Array Heatmap", each array performed twice): 0.586
- Array Heatmap value (peptide array signal) (KDM5A (3); KDM5A (3), sheet "Array Heatmap", each array performed twice): 0.5027
- Array Heatmap value (peptide array signal) (TAF3; TAF3, sheet "Array Heatmap", each array performed twice): 0.2816
- Array Heatmap value (peptide array signal) (ING3; ING3, sheet "Array Heatmap", each array performed twice): 0.4519
- Array Heatmap value (peptide array signal) (ING1; ING1, sheet "Array Heatmap", each array performed twice): 0.5268
- Array Heatmap value (peptide array signal) (DIDO1; DIDO1, sheet "Array Heatmap", each array performed twice): 0.6775
- Array Heatmap value (peptide array signal) (PHF21A; PHF21A, sheet "Array Heatmap", each array performed twice): 0.434
- Array Heatmap value (peptide array signal) (RAG2; RAG2, sheet "Array Heatmap", each array performed twice): 0.2621

Substance: H3K18ac: H3 1-20 [Peptide H3K18ac]
- Array Heatmap signal (histone peptide microarray) (PHRF1 (RP); GST-tagged PHRF1 (RP), sheet Array Heatmap, each array performed twice): 0.9005
- Array Heatmap signal (histone peptide microarray) (DPF2 (PPC2W2); GST-tagged DPF2 (PPC2W2 = Dual PHD + C2W2-type Zn-finger), sheet Array Heatmap, each array performed twice): 0.8135
- Array Heatmap signal (histone peptide microarray) (BPTF (PB); GST-tagged BPTF (PB = PHD + Bromodomain), sheet Array Heatmap, each array performed twice): 0.3398
- Array Heatmap signal (histone peptide microarray) (PHF23; GST-tagged PHF23, sheet Array Heatmap, each array performed twice): 0.5309
- Array Heatmap signal (histone peptide microarray) (PHF2; GST-tagged PHF2, sheet Array Heatmap, each array performed twice): 0.5028
- Array Heatmap signal (histone peptide microarray) (KDM4C (TTP); GST-tagged KDM4C (TTP = Tandem Tudor domain + PHD), sheet Array Heatmap, each array performed twice): 0.5068
- Array Heatmap signal (histone peptide microarray) (ING2; GST-tagged ING2, sheet Array Heatmap, each array performed twice): 0.5886
- Array Heatmap signal (histone peptide microarray) (CHD5 (PCC); GST-tagged CHD5 (PCC = PHD + Dual Chromodomain), sheet Array Heatmap, each array performed twice): 0.8176
- Array Heatmap signal (histone peptide microarray) (CHD4 (PPCC); GST-tagged CHD4 (PPCC = Dual PHD + Dual Chromodomain), sheet Array Heatmap, each array performed twice): 0.5741
- Array Heatmap signal (histone peptide microarray) (ING5; GST-tagged ING5, sheet Array Heatmap, each array performed twice): 0.3604
- Array Heatmap signal (histone peptide microarray) (SP140L; GST-tagged SP140L, sheet Array Heatmap, each array performed twice): 0.3771
- Array Heatmap signal (histone peptide microarray) (TRIM66 (PB); GST-tagged TRIM66 (PB = PHD + Bromodomain), sheet Array Heatmap, each array performed twice): 0.7719
- Array Heatmap signal (histone peptide microarray) (CHD5 (PPCC); GST-tagged CHD5 (PPCC = Dual PHD + Dual Chromodomain), sheet Array Heatmap, each array performed twice): 0.5749
- Array Heatmap signal (histone peptide microarray) (AIRE (PP); GST-tagged AIRE (PP), sheet Array Heatmap, each array performed twice): 0.6319
- Array Heatmap signal (histone peptide microarray) (KDM5A (1); GST-tagged KDM5A (1), sheet Array Heatmap, each array performed twice): 0.495
- Array Heatmap signal (histone peptide microarray) (KDM7A; GST-tagged KDM7A, sheet Array Heatmap, each array performed twice): 0.36
- Array Heatmap signal (histone peptide microarray) (BAZ2B; GST-tagged BAZ2B, sheet Array Heatmap, each array performed twice): 0.4617
- Array Heatmap signal (histone peptide microarray) (PHF8; GST-tagged PHF8, sheet Array Heatmap, each array performed twice): 0.3469
- Array Heatmap signal (histone peptide microarray) (MLL5; GST-tagged MLL5, sheet Array Heatmap, each array performed twice): 0.5221
- Array Heatmap signal (histone peptide microarray) (MORC3 (CW); GST-tagged MORC3 (CW = CW-type Zn-finger), sheet Array Heatmap, each array performed twice): 0.6663
- Array Heatmap signal (histone peptide microarray) (ING4; GST-tagged ING4, sheet Array Heatmap, each array performed twice): 0.4378
- Array Heatmap signal (histone peptide microarray) (KDM5B (1); GST-tagged KDM5B (1), sheet Array Heatmap, each array performed twice): 0.7147
- Array Heatmap signal (histone peptide microarray) (KDM5B (3); GST-tagged KDM5B (3), sheet Array Heatmap, each array performed twice): 0.5801
- Array Heatmap signal (histone peptide microarray) (PHF13; GST-tagged PHF13, sheet Array Heatmap, each array performed twice): 0.6049
- Array Heatmap signal (histone peptide microarray) (KDM5A (3); GST-tagged KDM5A (3), sheet Array Heatmap, each array performed twice): 0.7024
- Array Heatmap signal (histone peptide microarray) (TAF3; GST-tagged TAF3, sheet Array Heatmap, each array performed twice): 0.3122
- Array Heatmap signal (histone peptide microarray) (ING3; GST-tagged ING3, sheet Array Heatmap, each array performed twice): 0.4594
- Array Heatmap signal (histone peptide microarray) (ING1; GST-tagged ING1, sheet Array Heatmap, each array performed twice): 0.5131
- Array Heatmap signal (histone peptide microarray) (DIDO1; GST-tagged DIDO1, sheet Array Heatmap, each array performed twice): 0.6541
- Array Heatmap signal (histone peptide microarray) (PHF21A; GST-tagged PHF21A, sheet Array Heatmap, each array performed twice): 0.4738
- Array Heatmap signal (histone peptide microarray) (RAG2; GST-tagged RAG2, sheet Array Heatmap, each array performed twice): 0.2722

Substance: H3K18me2: H3 1-20 [Peptide H3K18me2]
- Array Heatmap signal, PHRF1 (RP) (PHRF1 (RP); [1]): 0.655
- Array Heatmap signal, DPF2 (PPC2W2) (DPF2 (PPC2W2); [1]): 0.713
- Array Heatmap signal, BPTF (PB) (BPTF (PB); [1]): 0.334
- Array Heatmap signal, PHF23 (PHF23; [1]): 0.5164
- Array Heatmap signal, PHF2 (PHF2; [1]): 0.4223
- Array Heatmap signal, KDM4C (TTP) (KDM4C (TTP); [1]): 0.5076
- Array Heatmap signal, ING2 (ING2; [1]): 0.5955
- Array Heatmap signal, CHD5 (PCC) (CHD5 (PCC); [1]): 0.7562
- Array Heatmap signal, CHD4 (PPCC) (CHD4 (PPCC); [1]): 0.5307
- Array Heatmap signal, ING5 (ING5; [1]): 0.3565
- Array Heatmap signal, SP140L (SP140L; [1]): 0.3547
- Array Heatmap signal, TRIM66 (PB) (TRIM66 (PB); [1]): 0.5483
- Array Heatmap signal, CHD5 (PPCC) (CHD5 (PPCC); [1]): 0.548
- Array Heatmap signal, AIRE (PP) (AIRE (PP); [1]): 0.593
- Array Heatmap signal, KDM5A (1) (KDM5A (1); [1]): 0.4854
- Array Heatmap signal, KDM7A (KDM7A; [1]): 0.3495
- Array Heatmap signal, BAZ2B (BAZ2B; [1]): 0.4823
- Array Heatmap signal, PHF8 (PHF8; [1]): 0.3314
- Array Heatmap signal, MLL5 (MLL5; [1]): 0.5113
- Array Heatmap signal, MORC3 (CW) (MORC3 (CW); [1]): 0.432
- Array Heatmap signal, ING4 (ING4; [1]): 0.4353
- Array Heatmap signal, KDM5B (1) (KDM5B (1); [1]): 0.731
- Array Heatmap signal, KDM5B (3) (KDM5B (3); [1]): 0.4828
- Array Heatmap signal, PHF13 (PHF13; [1]): 0.5815
- Array Heatmap signal, KDM5A (3) (KDM5A (3); [1]): 0.5609
- Array Heatmap signal, TAF3 (TAF3; [1]): 0.2642
- Array Heatmap signal, ING3 (ING3; [1]): 0.447
- Array Heatmap signal, ING1 (ING1; [1]): 0.5097
- Array Heatmap signal, DIDO1 (DIDO1; [1]): 0.6131
- Array Heatmap signal, PHF21A (PHF21A; [1]): 0.4944
- Array Heatmap signal, RAG2 (RAG2; [1]): 0.2403
